Test results: patent US10827753B2, “Compositions and methods for controlling nematodes” (Monsanto Technology LLC, priority 2007, dated 2020)
Marks after values point to notes of the source that are not given here.

Columns and labels:
Meloidogyne incognita [1] = assay: M. incognita miniaturized greenhouse assay on cucumber seedlings (root galling); type: in vivo; set-up: key to 1 ppm gall ratings / 1 ppm gall rating: mean of 3 gall ratings: 0=0-5%, 1=6-20%, 2=21-50%, 3=51-100% root galled
In short: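 Compound in acetone/Triton X100 stock (5 mg/mL) diluted into water with 0.015% Triton X100 and applied to sand-planted sprouted cucumber seedlings; inoculated with 500 M. incognita eggs two days after planting. Roots harvested 10–12 days later; galling scored 0–3 by % root mass galled, averaged over triplicates, plus visual root phytotoxicity rating.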

[2] = tested on: caspase-3 in rat hepatoma derived H4IIE cells; assay: Caspase-3 activity (DEVD-AMC) after compound exposure in H4IIE cells; type: cell-based; conditions: concentrations up to 300 μM
Procedure: Caspase 3 cleaves the tetrapeptide between D and AMC, thus releasing the fluorogenic […] AMC. Following the test article exposure to cells in 96-well plates, medium was aspirated from plates and PBS added to each well. Plates were stored at −80° C. to lyse cells and store samples until further analysis. On the day of analysis, plates were removed from freezer and thawed. Caspase buffer with fluorescent substrate was added to each well and incubated at room temperature for one hour. AMC release was measured in a spectrofluorometer at an excitation wavelength of 360 nm and an emission wavelength of 460 nm. Values are expressed as relative fluorescent units (RFU).

root knot nematode = assay: Pre-plant incorporated (PPI) greenhouse test of root knot nematode on cucumber plants; type: in vivo, Meloidogyne incognita; conditions: Meloidogyne incognita, fourteen day pre-plant incorporated, test b, read-out: percent control (galling reduction) relative to the control blank treatment; for pest or weed control at 4000 g/ha: 4 kg/ha rate; for pest or weed control at 8000 g/ha: 8 ka/ha rate
Text: The PPI test examines the effect of pre-incorporation of compounds in soil and longer aging to simulate in furrow methods of nematicide application in the field. The PPI test exposes compounds to a higher volume of soil and drying which can result in more severe soil binding. Compounds are also aged for longer periods which can lead to more extensive biotic and abiotic degradation further limiting activity.
The chemically treated soil (sandy soil mix) for all treatment days (e.g., 7 days, 14 days, 21 days) treatments is potted into their appropriate pots. On the same day the 7 day treatment pots are seeded. One week later eggs are applied and 14 days after egg application the test is harvested. The 14 day treatments are planted 7 days after the first planting. The 14 day planting and 7 day inoculation happen on the same day. One week later the 14 day treatments are inoculated with eggs. These are harvested 14 days after the inoculation. The 21 day treatments are planted 14 days after the first planting. The 14 day inoculation and 21 day planting are done on the same day. One week later the 21 day plants are inoculated with eggs. The 7 day treatment is harvested the same day as the 21 day inoculation. Fourteen days after inoculation the 21 day plants are harvested.
For each compound a stock is prepared using 4 mg material in 4 ml of acetone. The soil is mixed by placing 80 ml of field soil and 320 ml of sand in a plastic bag and mixing well. The formulation for treatment is done by adding 2.13 ml (8 kg/ha rate), 1.06 ml (4 kg/ha rate) or 0.53 ml (2 kg/ha rate) to a vial and raising it with 10 ml in 0.05%×100. Soil is then treated by adding the entire 10 ml to the 400 ml of mix in the bag. The treated soil is immediately mixed well in the sealed bag to distribute the compound evenly. Approximately 95 ml is used to fill each 2-inch square pot up to the top with some soil compression and flattening. For each compound and for the control treatments 4 pots are filled. All pots are watered until moist but with no run-out through the bottom.
The PPI test simulates 8, 4 and 2 kg/ha rates incorporated 15 cm deep in the field and is equivalent to the 2, 1 and 0.5 kg/ha drench application rates in the standard 2-inch pot cucumber greenhouse assay.

mice = conditions: cited from earlier work
Meloidogyne incognita [3] = assay: Fall nematicidal field testing on squash microplots; type: in vivo; conditions: for RG28 = % root galls at 28 days after treatment / RG43 = % root galls at 43 days after treatment: squash
Text: The test site was located at 3511 Highway F in New Melle, Mo., Saint Charles county. The soil was a native prairie/pasture covering silty clay loam soil. Holes were dug using a Bobcat 763 skid loader with a 12-inch auger to a depth of 18 inches. Total volume of each hole was about 1.2 cubic feet. Six cubic yards of topsoil and 9 tons of river sand were purchased from Dardenne Farms Topsoil. Mixing to a ratio of 4 volumes sand to 1 volume soil was accomplished using a trailer-mounted 9 cubic foot concrete mixer. Holes were filled and then re-filled 5 days later after settling. The mixture was 92.5% sand, 2.5% silt, and 5% clay. Organic matter was 0.2% and pH was 6.8.
Treatments were arranged in a block design with the blocks laid out perpendicular to the primary slope and parallel to secondary slope. There are 7 inoculated controls and 5 non-inoculated controls and the distributions of disease severity appeared independent of location.
Application rates are expressed as kg of active material per hectare, and the mg per plot is based on the surface area of the bored and filled holes (0.000008559 Ha). The DC compounds were formulated immediately before application as follows: 1) the amount required to treat all six replicates was dissolved in 300 ml of acetone, 2) for each plot 50 ml of that solution was added to a graduated cylinder with 2 ml of 12.5% Triton X100 and the volume was raised to 500 ml with tap water. The resultant mix is the same as used in the standard greenhouse assays (10% acetone, 0.05%×100). The oxamyl treatments were prepared from Vydate 2 L formulated the same way. The 500 ml was placed in a watering can and the entire volume was evenly sprinkled over the surface of the plot. No runoff occurred and pooling, if any, was short lived. The final drench volume was 0.58 ml/cm^2, compared to 0.2 ml/cm^2 used in our greenhouse, however the microplots are much deeper so the drench volume applied per soil volume treated is roughly the same.
Meloidogyne incognita eggs were harvested over a two week period and stored at approximately 5° C. until needed. A stock of 5.6 million vermiform eggs was adjusted to 9000/ml in 620 ml. One day after treatment, two holes were made in each plot about 7 cm apart and equidistant from the squash plants. Five ml of egg suspension was pipetted into each hole, which was then sealed and the plot lightly watered. A total of 90,000 vermiform eggs were added to each plot.
The first root evaluation was at 28 DAT. The tops were cut off and weighed immediately in the field, and the roots were carefully dug out so as not to disturb the remaining plant.

[4] = tested on: CD-1/Swiss derived albino mice; type: in vivo; conditions: 500 mg/kg oral, three female mice, observed up to 14 days
Procedure: Acute oral toxicity testing was performed in mice in accordance with test method P203.UDP, as administered by Eurofins/Product Safety Laboratories (Dayton, N.J.). CD-1/Swiss derived albino mice were obtained and group housed in suspended solid bottom caging. The mice were fed rodent chow and filtered tap water was supplied ad libitum. Following acclimation to the laboratory setting, a group of animals was fasted overnight by removing food from the cages. After the fasting period, three female mice were selected based on vitality and initial body weights. The individual compound doses were calculated from these body weights.
The test substance was prepared as a 1% (50 mg/kg) or 5% (500 mg/kg) weight to weight (w/w) mixture in a 0.5% w/w solution of carboxymethylcellulose (CMC) in distilled water. A tissue homogenizer was used to create a homogeneous mixture. A dose of 50 or 500 mg/kg was administered to three healthy mice per dose level by oral intubation using a ball-tipped gavage needle attached to a syringe. After administration, the animals were returned to their cages, and feed was replaced immediately after dosing.
Body weights were recorded prior to initiation and on Days 7 and 14 or a soon as possible after death.

[5] = tested on: sting (Belonolaimus longicaudatus) nematodes; assay: Sting nematode bench top soil assay; type: in vivo
Procedure: Populations of sting (Belonolaimus longicaudatus) nematodes are maintained on St. Augustine turf grass on soil in 15-cm pots. At test initiation the turf is removed from the pots and the soil containing nematode eggs, juveniles, and adults is subdivided into pots each containing a volume of 125 cm^3′ The compounds to be tested are dissolved in 3 ml of acetone using 3, 6, or 15 mg to achieve equivalent surface area application rates of 2, 4, or 10 kg/ha, respectively. The 3 ml acetone stock solution is added to 30 ml of water, and 5 ml of that solution is used to drench each of 6 replicate test pots prepared as described above. The treated pots containing nematodes are incubated in the laboratory at ambient temperature of approximately 25° C. After 3 days the soil from each pot is washed onto a modified Baermann apparatus comprised of a screen supporting a layer of filter paper on which the soil sample is placed and set in a dish of water. The samples are then incubated at 25° C. for 24 hours to allow the live nematodes to migrate through the paper and screen and into a water reservoir to be collected for counting with a light microscope. Nematodes that have been killed or immobilized by the test compounds are not able to migrate into the reservoir.

Meloidogyne incognita [6] = assay: Summer field evaluation of pre-plant incorporated compounds on squash; type: in vivo; conditions: for 0-3 vigor 16 DAP / 0-3 vigor 21 DAP / feeder root (3 = ave) 31 DAP / gall % 31 DAP / root wgt (g) 31 DAP / top wgt (lbs) 31 DAP / total fruit (lbs): 4 kg (kg/ha) PPI, squash
In short: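 PPI simulation: compound in acetone/Triton X-100 and water mixed into 80% sand/20% silt loam with chopped galled tomato roots, filling top 15 cm of 6 replicate field plots. M. incognita eggs/larvae (100 k per plot) injected 5 cm deep; three-week-old squash cv. Liberator III planted 4 days after treatment.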

[7] = tested on: Heterodera glycines (SCN); assay: Seed treatment test of soybean cyst nematode on soybean plants; type: in vivo
Procedure: For a given concentration the chemical is dissolved in 500 ul of acetone and one gram of cucumber seed (RKN test) or soybean seed (SCN test) is added (e.g., 20 mg active ingredient in 500 ul acetone plus 1 gram of seed). The seed solutions are agitated until all seeds were thoroughly covered with the chemical solution. The acetone is then allowed to evaporate by air drying the seeds. The seeds are planted in 2-inch pots containing sandy soil and then the pots are inoculated with 1000 Meloidogyne incognita (RKN) or 1000 Heterodera glycines (SCN) eggs per pot three days after planting. Plants are rated for galling 14 days after egg inoculation for RKN or 28 days after egg inoculation for SCN.

Row | Structure (SMILES) | 1 ppm gall ratings (Meloidogyne incognita [1]; Table 1B test e) | induction of caspase-3 (apoptosis marker) [2] | pest or weed control at 4000 g/ha (root knot nematode) | pest or weed control at 8000 g/ha (root knot nematode) | oral LD50 in mice (mice) | RG28 = % root galls at 28 days after treatment (Meloidogyne incognita [3]; 2 kg ai/ha drench) | RG43 = % root galls at 43 days after treatment (Meloidogyne incognita [3]; 2 kg ai/ha drench) | 0-3 vigor 16 DAP (Meloidogyne incognita [6]) | 0-3 vigor 21 DAP (Meloidogyne incognita [6]) | feeder root (3 = ave) 31 DAP (Meloidogyne incognita [6]) | gall % 31 DAP (Meloidogyne incognita [6]) | root wgt (g) 31 DAP (Meloidogyne incognita [6]) | top wgt (lbs) 31 DAP (Meloidogyne incognita [6]) | total fruit (lbs) (Meloidogyne incognita [6]) | other results
1 | Fc1cc(Cl)ccc1-c1cnc(-c2cccs2)o1 [compound 5915] | 0.33^e | no induction of caspase-3 | 70% | 99% |  |  |  |  |  |  |  |  |  |  | 
2 | CNC(=O)O/N=C/C(C)(C)SC [aldicarb] |  |  |  |  | 0.3 mg/kg |  |  |  |  |  |  |  |  |  | 
3 | c1ccc(-c2cnc(-c3cccs3)o2)cc1 [compound 4417] |  |  |  |  |  | 25.5% | 38.2% |  |  |  |  |  |  |  | 8 ppm gall ratings (Meloidogyne incognita [1]; 8 ppm, average of triplicate gall rating, scale 0-3 (% root mass galled)): 0.33; root weights (in words) (Meloidogyne incognita [3]; 2 kg/ha, 28 DAT): not affected; top weights (in words) (Meloidogyne incognita [3]; 2 kg/ha, 28 DAT): reduction in top weights; Leaf diameter of the first true leaves (Meloidogyne incognita [3]; 2 kg/ha, five days after treatment (5 DAT)): slight reduction; phytotoxicity on squash seedlings (Meloidogyne incognita [3]; 2 kg/ha, two days after treatment): slight phytotoxicity; mortality, signs of gross toxicity and behavioral changes [4]: One animal died within four days; Number of nematodes recovered from treated soil after 3 days incubation with the compound ([5]; 2 kg/ha): 24; Number of nematodes recovered from treated soil after 3 days incubation with the compound ([5]; 4 kg/ha): 13; Number of nematodes recovered from treated soil after 3 days incubation with the compound ([5]; 10 kg/ha): 7
4 | Cc1cc(Cl)ccc1-c1nsc(-c2ccco2)n1 [compound 5938] | 0.67^e | no induction of caspase-3 | 90% | 100% |  |  |  | 2.5 | 2.7 | 2.7 | 9% | 24.1 g | 1.60 lbs | 1.22 lbs | control of M. incognita (in words) (Meloidogyne incognita [6]; PPI application at 4 kg/ha): excellent control
5 | CS/C(C)=N\OC(=O)N(C)SN(C)C(=O)O/N=C(\C)SC [Thiodicarb] |  |  |  |  |  |  |  |  |  |  |  |  |  |  | percent cyst reduction relative to control blank treatment ([7]; 0.375 mg al/gram seed, test a): 6^a percent; percent cyst reduction relative to control blank treatment ([7]; 1.5 mg al/gram seed, test a): −23^a percent
6 | CNC(=O)O/N=C(\SC)C(=O)N(C)C [Oxamyl, oxamyl, reference compound] | 1 (1=6-20%) |  |  |  | 2.3 mg/kg | 45.0% | 42.3% | 2.7 | 2.5 | 3.0 | 85% | 37.0 g | 1.16 lbs | 1.09 lbs | gall ratings (Meloidogyne incognita [1]; 1 ppm (oxamyl standard of Table 1A), average of triplicate, scale 0-3): 0.67 (1 ppm); 1 ppm gall ratings (Meloidogyne incognita [1]; Table 1B test a): 0.67; 1 ppm gall ratings (Meloidogyne incognita [1]; Table 1B test b): 1 (1=6-20%); 1 ppm gall ratings (Meloidogyne incognita [1]; Table 1B test c): 1.33; 1 ppm gall ratings (Meloidogyne incognita [1]; Table 1B test d): 1.33; 1 ppm gall rating (Meloidogyne incognita [1]; Table 1C test a): 1.33; 1 ppm gall rating (Meloidogyne incognita [1]; Table 1C test b): 1 (1=6-20%); 1 ppm gall rating (Meloidogyne incognita [1]; Table 1C test c): 0.67^c; 1 ppm gall rating (Meloidogyne incognita [1]; Table 1D test a): 1.33^a,; 1 ppm gall rating (Meloidogyne incognita [1]; Table 1D test b): 1^b (1=6-20%); percent cyst reduction relative to control blank treatment ([7]; 0.375 mg al/gram seed, test b): −4^b percent; percent cyst reduction relative to control blank treatment ([7]; 1.5 mg al/gram seed, test b): 71^b percent; RG28 = % root galls at 28 days after treatment (Meloidogyne incognita [3]; 5 kg ai/ha drench): 10.5%; RG43 = % root galls at 43 days after treatment (Meloidogyne incognita [3]; 5 kg ai/ha drench): 17.3%
